Earlier results as cited in US20230203322A1, “NON-ABLATIVE MULTI-LAYER COATINGS FOR BOAT PROPELLERS THAT PREVENT WATER-DERIVED DAMAGE, CORROSION, AND DETERIORATION FROM BIOLOGICAL CHEMICAL PROCESSES” (priority 2021, published 2023).

Assays:
[1] = tested on: barnacles; conditions: copper release
[2] = tested on: biofouling animal organisms

## [Cu] [copper]
[1]
  minimal effective rate known to be effective for eradicating barnacles: 4 × 10^-6 micrograms per cm^2 per day

## [O]=[Zn] [zinc oxide]
[2]; by itself
  effect on biofouling animal organisms: only a weak effect
[2]; used in combination with the copper containing-substance
  synergistic enhancement of the biofouling anti-proliferating effect of copper and its alloys and salts: up to 200 times
